Tests used:
[1] = target: T1, catalytic domain human MMP-14 (Homo sapiens, UniProt P50281); test: MMP-14 fluorogenic inhibition assay; assay type: biochemical; conditions: read-out: Calculated Ki(nM) MMP-14
T1 construct: made in house
Experimental: (§1) All enzymes were pre-activated at 37° C. with aminophenylmercuric acetate (APMA) or trypsin before being made up to the final concentrations used in the assay. MMP-1 (30 nM) was activated with 0.93 mM APMA for 20 minutes, MMP-2 (30 nM) was activated with 1.32 mM APMA for 1 hour, MMP-3 (1010 nM) was activated with 1.81 mM APMA for 3 hours or heat activated at 55° C. for three hours, MMP-9 (100 nM) was activated with 2 mM APMA for 2 hours, human MMP-13 (100 nM) was activated with 2 mM APMA for 2 hours, and MMP-14 (900 nM) was activated with 0.9 ng/ml trypsin for 25 minutes, followed by the addition of 4.5 ng/ml trypsin inhibitor.
(§2) For MMP-1, the assay buffer used was 50 mM Tris, 200 mM NaCl, 5 mM CaCl2, 20 μM ZnCl2, 0.05% (w/v) Brij 35, pH 7.5. […] For MMP-13, the assay buffer used was 50 mM Tris, pH 7.5, 200 mM NaCl, 5 mM CaCl2, […] and 0.02% (w/v) Brij 35. For MMP-14, the assay buffer used was 50 mM Tris, 100 mM NaCl, 10 mM CaCl2, 0.25% (w/v) Brij 35, pH 7.5.
MMP-14 inhibition was assayed by incubating activated catalytic domain human MMP-14 at 1 nM in assay buffer with 10 μM Mca-Pro-Leu-Gly-Leu-Dpa-Ala-Arg-NH2 and six concentrations of inhibitor. The incubation was performed at 37° C. for 60 minutes.
(§3) The final assay concentrations of inhibitors used in the MMP-1 assays to determine Ki were 50, 40, 30, 20, 10 and 5 μM. For MMP-2, the final assay concentrations of inhibitors used were 1000, 800, 600, 400, 200 and 100 nM. For MMP-3, the final assay concentrations of inhibitors used were 5, 4, 3, 2, 1 and 0.5 nM. For MMP-9 and MMP-14, the final assay concentrations of inhibitors used were 5, 4, 3, 2, 1 and 0.5 μM.
(§4) All assays were carried out in a black 96-well plate with a final volume of 100 μl in each well. Inhibitors were dissolved in dimethylsulphoxide (DMSO) to 1 mM. […] For MMP-2, MMP-3, MMP-9 and MMP-14, fluorescence was read every 2 minutes at […] and 393 nm γem for 1 hour using a Fluorostar fluorimeter (BMG) with BIOLISE software. For MMP-1 assays, the filters used were 355 nm γex and 440 nm γem; fluorescence was read every 2 minutes for 1 hour. […]

[2] = target: catalytic domain of human MMP-2 (Homo sapiens, UniProt P08253); test: MMP-2 fluorogenic inhibition assay; assay type: biochemical; conditions: read-out: Calculated Ki(nM) MMP-2
catalytic domain of human MMP-2, sequence (P08253 with tags, fused parts or gaps DEL222-396 limits assumed): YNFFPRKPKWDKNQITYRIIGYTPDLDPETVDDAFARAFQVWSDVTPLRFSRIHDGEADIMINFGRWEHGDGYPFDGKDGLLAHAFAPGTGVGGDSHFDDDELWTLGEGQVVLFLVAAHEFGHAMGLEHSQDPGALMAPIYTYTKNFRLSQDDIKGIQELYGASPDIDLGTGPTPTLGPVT
Experimental: (§5) All enzymes were pre-activated at 37° C. with aminophenylmercuric acetate (APMA) or trypsin before being made up to the final concentrations used in the assay.
(§6) For MMP-1, the assay buffer used was 50 mM Tris, 200 mM NaCl, 5 mM CaCl2, 20 μM ZnCl2, 0.05% (w/v) Brij 35, pH 7.5. […] For MMP-13, the assay buffer used was 50 mM Tris, pH 7.5, 200 mM NaCl, 5 mM CaCl2, […] and 0.02% (w/v) Brij 35.
(§7) MMP-2, MMP-3 and MMP-9 inhibition was assayed by incubating activated catalytic domain of human MMP-2, MMP-3 and MMP-9 at 1 nM in assay buffer with 5 μM substrate Mca-Arg-Pro-Lys-Pro-Tyr-Ala-Nva-Trp-Met-Lys(Dnp)-NH2, and six different concentrations of inhibitor. The incubation was performed at 37° C. for 60 minutes.
(§8) For MMP-2, the final assay concentrations of inhibitors used were 1000, 800, 600, 400, 200 and 100 nM. For MMP-3, the final assay concentrations of inhibitors used were 5, 4, 3, 2, 1 and 0.5 nM. For MMP-9 and MMP-14, the final assay concentrations of inhibitors used were 5, 4, 3, 2, 1 and 0.5 μM.
All assays were carried out in a black 96-well plate with a final volume of 100 μl in each well. Inhibitors were dissolved in dimethylsulphoxide (DMSO) to 1 mM. Solutions were then serially diluted in buffer to give the final concentrations shown. […]

MMP-13 [3] = target: T2, MMP-13 (Homo sapiens, UniProt P45452); test: MMP-13 fluorogenic inhibition assay; assay type: biochemical; conditions: estimated from IC50; read-out: Calculated Ki(nM) MMP-13
T2 construct: made in house
Experimental: as §5, §6
Assays were carried out in 96-well microfluor plates. All incubations were performed at 37° C. and fluorescence readings determined at 360 nm γex and 450 nm γem.
For the assay, the fluorescence values at time zero were subtracted from those determined at 15 or 20 minutes. The % response was then calculated by comparison to positive controls (enzyme, buffer and substrate in the absence of inhibitor). IC50 values were then determined using FitCurve (Excel Tessella Stats add-in).
(§9) These were estimated using the following equation: IC50=(Ki*[…], where S is the substrate concentration and Km the Michaelis-Menton coefficient. Serine Protease Assays

[4] = target: T3, catalytic domain human MMP-1 (Homo sapiens, UniProt P03956); test: MMP-1 fluorogenic inhibition assay; assay type: biochemical; conditions: * limited by compound solubility; read-out: Calculated Ki(nM) MMP-1
T3 construct: made in house
T3 sequence (P03956 100-269 limits assumed): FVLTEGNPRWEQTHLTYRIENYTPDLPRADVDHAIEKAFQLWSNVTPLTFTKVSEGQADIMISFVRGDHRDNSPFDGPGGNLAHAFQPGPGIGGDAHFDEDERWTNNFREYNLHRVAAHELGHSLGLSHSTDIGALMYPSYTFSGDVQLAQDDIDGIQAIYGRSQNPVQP
Experimental: as §5, §6
The incubation was performed at 37° C. for 60 minutes.
as §8
(§10) All assays were carried out in a black 96-well plate with a final volume of 100 μl in each well. Inhibitors were dissolved in dimethylsulphoxide (DMSO) to 1 mM. Solutions were then serially diluted in buffer to give the final concentrations shown.
as §9

[5] = target: T4, catalytic domain of human MMP-3 (Homo sapiens, UniProt P08254); test: MMP-3 fluorogenic inhibition assay; assay type: biochemical
T4 construct: made in house
T4 sequence (P08254 100-272 limits assumed): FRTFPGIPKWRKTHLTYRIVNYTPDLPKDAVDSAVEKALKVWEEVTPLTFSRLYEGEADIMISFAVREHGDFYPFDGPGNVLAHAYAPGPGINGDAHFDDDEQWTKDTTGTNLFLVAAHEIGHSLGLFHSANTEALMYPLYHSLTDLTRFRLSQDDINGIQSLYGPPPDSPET
Experimental: as §5, §6, §7, §8, §10, §9

[6] = target: T5, catalytic domain of human MMP-9 (Homo sapiens, UniProt P14780); test: MMP-9 fluorogenic inhibition assay; assay type: biochemical; conditions: read-out: Calculated Ki(nM) MMP-9
T5 sequence (P14780 with tags, fused parts or gaps DEL216-390 limits assumed): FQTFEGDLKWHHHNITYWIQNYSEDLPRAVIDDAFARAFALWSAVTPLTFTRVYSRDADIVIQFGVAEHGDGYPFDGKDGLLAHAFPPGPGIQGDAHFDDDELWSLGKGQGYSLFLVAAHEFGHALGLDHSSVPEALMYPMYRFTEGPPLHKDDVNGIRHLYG
Experimental: as §1, §2, §7, §3
as §4, with “well.” for “well. Inhibitors were dissolved in dimethylsulphoxide (DMSO) to 1 mM.”

MMP-3 [7] = target: T6, MMP-3 (Homo sapiens, UniProt P08254); test: Reduction of MMP-3-catalysed degradation of KGF-2; assay type: biochemical; conditions: MMP-3 / KGF-2, read-out: Percentage inhibition of proteolysis
T6 construct: made in house
T6 sequence (P08254 100-272 limits assumed): as the sequence (P08254 100-272 limits assumed) above

uPA = uPA (Homo sapiens, UniProt P00749); test: Proteolytic digestion of growth factors by purified uPA; assay type: biochemical; parameters: High molecular weight human urokinase from urine, 3000 IU/vial (Calbiochem, 672081); purchased Calbiochem 672081; host or cells: human urine; key: significant (represented as ‘+’); a score from significant (represented as ‘+’) to major (represented as ‘+++’); major (represented as ‘+++’); Reduction of parent growth factor not accompanied by the appearance of degradation products is represented by (+); conditions: 37° C., Western blot
Experimental: (§11) The extent of proteolysis of the growth factors was assayed by incubating TGF-β2, VEGF, PDGF-BB and KGF-2 with the proteases uPA, plasmin, MMP-3 and MMP-13 in assay buffer (either uPA/plasmin buffer, 50 mM tris-HCl, pH 7.4 or MMP assay buffer, 100 mM Tris, 10 mM NaCl, 10 mM CaCl2, 0.05% (w/v) Brij 35, pH 7.5). […] The growth factors were added to the incubation mixture at a final concentration of 7.9 mg/ml, unless otherwise stated.
(§12) The effects of uPA were determined by incubation at a typical final concentration of 25 μg/ml (1500 U/ml) with each growth factor. The effects of plasmin were determined at a typical final concentration of 0.1 mg/ml by incubation with the individual growth factors in assay buffer. MMP-3 and -13 were incubated at a typical final concentration of 10 nM with the growth factors in assay buffer. […] All incubations were performed in siliconised tubes (Sigma Aldrich, UK).
(§13) All assays were carried out at 37° C. and enzymes were pre-incubated for 15 minutes with or without inhibitor as appropriate, prior to addition of growth factors. After the addition of growth factor, the incubation mixtures were divided into aliquots in siliconised tubes for each time point used. Incubations were carried out over a time course typically of 24 hours, unless otherwise stated. […]

MMP-13 [8] = target: T2, MMP-13; test: Proteolytic digestion of growth factors by purified MMP-13; assay type: biochemical; parameters: key: significant (represented as ‘+’); a score from significant (represented as ‘+’) to major (represented as ‘+++’); major (represented as ‘+++’); Reduction of parent growth factor not accompanied by the appearance of degradation products is represented by (+); conditions: purified MMP-13, 37° C., Western blot
Experimental: as §11, §12, §13

MMP-3 [9] = target: T6, MMP-3; test: Proteolytic digestion of growth factors by purified MMP-3; assay type: biochemical; parameters: key: significant (represented as ‘+’); a score from significant (represented as ‘+’) to major (represented as ‘+++’); major (represented as ‘+++’); Reduction of parent growth factor not accompanied by the appearance of degradation products is represented by (+); conditions: purified MMP-3, 37° C., Western blot
Experimental: as §11, §12, §13

Plasmin = target: T7, Plasmin (Homo sapiens, UniProt P00747); test: Proteolytic digestion of growth factors by purified plasmin; assay type: biochemical; parameters: key: significant (represented as ‘+’); a score from significant (represented as ‘+’) to major (represented as ‘+++’); major (represented as ‘+++’); Reduction of parent growth factor not accompanied by the appearance of degradation products is represented by (+); conditions: 37° C., Western blot
T7 construct: Human plasmin, 2 mg/vial (Quadratech, 810665) was reconstituted to 1 mg/ml in buffer; purchased Quadratech 810665
T7 sequence (P00747 581-810 limits assumed): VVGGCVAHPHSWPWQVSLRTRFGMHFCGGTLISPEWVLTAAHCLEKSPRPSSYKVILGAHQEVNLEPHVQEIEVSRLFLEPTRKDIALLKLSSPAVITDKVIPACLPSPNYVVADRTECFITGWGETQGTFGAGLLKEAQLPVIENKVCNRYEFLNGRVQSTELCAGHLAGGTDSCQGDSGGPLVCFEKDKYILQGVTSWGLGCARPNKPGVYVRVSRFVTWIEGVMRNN
T7 sequence (P00747 97-580 partner limits assumed): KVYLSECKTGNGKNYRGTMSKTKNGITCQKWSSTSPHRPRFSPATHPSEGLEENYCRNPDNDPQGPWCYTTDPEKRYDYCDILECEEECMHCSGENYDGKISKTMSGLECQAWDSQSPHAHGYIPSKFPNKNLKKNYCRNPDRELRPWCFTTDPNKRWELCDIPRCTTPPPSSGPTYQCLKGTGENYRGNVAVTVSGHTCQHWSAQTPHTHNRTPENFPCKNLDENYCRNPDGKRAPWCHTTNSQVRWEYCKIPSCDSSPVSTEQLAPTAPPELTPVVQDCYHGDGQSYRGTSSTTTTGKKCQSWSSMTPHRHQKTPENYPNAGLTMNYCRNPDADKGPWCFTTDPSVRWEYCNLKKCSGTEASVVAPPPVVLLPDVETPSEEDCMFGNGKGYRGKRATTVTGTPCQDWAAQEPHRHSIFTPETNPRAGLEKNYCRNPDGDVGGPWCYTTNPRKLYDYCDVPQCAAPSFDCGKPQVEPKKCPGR
Experimental: as §11, §12, §13

[10] = in vivo; cited from earlier work

Cc1cc(C2CCN(S(=O)(=O)C(C)(C)C(=O)NO)CC2)ccc1-c1cccc(OCCO)c1 [compound 9470]
Ki [1]: 1710 nM | Ki [2]: 269 nM | Ki (MMP-13 [3]): 0.95 nM | Ki [4]: 1780 nM | Selectivity among MMPs (in words) ([5]; from Ki values of Table 3 (MMP-1, -2, -3, -9, -13, -14)): selective dual inhibitor of MMP-3 and MMP-13 | Ki ([5]; read-out: Calculated Ki(nM) MMP-3): 1 nM | Ki [6]: 406 nM | inhibition at 0.01 µM (MMP-3 [7]; inhibitor 0.01 μM): 24.5% | inhibition at 0.1 µM (MMP-3 [7]; inhibitor 0.1 μM): 64.5% | inhibition at 1 µM (MMP-3 [7]; inhibitor 1 μM): 72.2% | inhibition at 10 µM (MMP-3 [7]; inhibitor 10 μM): 91.1%

PDGF-BB: "human recombinant PDGF-BB" obtained from Sigma; growth factor
Extent of hydrolysis of growth factor by uPA (uPA): ++ | Extent of hydrolysis of growth factor by MMP-13 (MMP-13 [8]): (+) | Extent of hydrolysis of growth factor by MMP-3 (MMP-3 [9]): + | Extent of hydrolysis of growth factor by Plasmin (Plasmin): +++

TGF-β2: "Human recombinant TGF-β2 and KGF-2 were obtained from R&D Systems"; growth factor
Extent of hydrolysis of growth factor by uPA (uPA): + | Extent of hydrolysis of growth factor by MMP-13 (MMP-13 [8]): + | Extent of hydrolysis of growth factor by MMP-3 (MMP-3 [9]): (+) | Extent of hydrolysis of growth factor by Plasmin (Plasmin): ++

transforming growth factor β3 [TGFβ3]
half life after injection into venous ulcers [10]: approximately 30 minutes

Reference: patent US20050026836A1, “Composition for the treatment of damaged tissue” (priority 1999, published 2005)
